Tests used:
[1] = target: Aurora kinase A (Homo sapiens) (UniProt O14965); assay: Inhibition of human Aurora A at 10 uM
[2] = target: Tyrosine-protein kinase receptor UFO (Homo sapiens) (UniProt P30530); assay: Inhibition of human Axl at 10 uM
[3] = target: Cytoplasmic tyrosine-protein kinase BMX (Homo sapiens) (UniProt P51813); assay: Inhibition of human Bmx at 10 uM
[4] = target: RAF proto-oncogene serine/threonine-protein kinase (Homo sapiens) (UniProt P04049); assay: Inhibition of human c-RAF at 10 uM
[5] = target: Calcium/calmodulin-dependent protein kinase type IV (Homo sapiens) (UniProt Q16566); assay: Inhibition of human CaMK4 at 10 uM
Sequence of Calcium/calmodulin-dependent protein kinase type IV (Homo sapiens) (Q16566 whole entry): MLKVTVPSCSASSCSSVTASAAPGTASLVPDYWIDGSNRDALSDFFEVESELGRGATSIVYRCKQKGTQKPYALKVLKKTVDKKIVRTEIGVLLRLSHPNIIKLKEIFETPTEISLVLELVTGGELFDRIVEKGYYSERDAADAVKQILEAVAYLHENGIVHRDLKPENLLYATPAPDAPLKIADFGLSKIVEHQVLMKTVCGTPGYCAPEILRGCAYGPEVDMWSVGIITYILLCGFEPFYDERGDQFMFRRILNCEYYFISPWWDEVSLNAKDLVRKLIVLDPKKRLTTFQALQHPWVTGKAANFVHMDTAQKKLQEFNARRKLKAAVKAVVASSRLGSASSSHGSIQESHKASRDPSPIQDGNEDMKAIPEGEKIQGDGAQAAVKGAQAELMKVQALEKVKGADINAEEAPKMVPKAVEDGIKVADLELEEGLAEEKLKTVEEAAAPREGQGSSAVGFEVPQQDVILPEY

[6] = target: Cyclin-dependent kinase 1/cyclin B1 (Homo sapiens) (UniProt P06493+P14635); assay: Inhibition of human CDK1/cyclinB at 10 uM; type: protein-complex assay
[7] = target: Serine/threonine-protein kinase Chk2 (Homo sapiens) (UniProt O96017); assay: Inhibition of human CHK2 at 10 uM
[8] = target: Casein kinase II (Homo sapiens) (UniProt P67870+P68400+P19784); assay: Inhibition of human CK2 at 10 uM; type: protein-complex assay
[9] = target: Tyrosine-protein kinase CSK (Homo sapiens) (UniProt P41240); assay: Inhibition of human CSK at 10 uM
[10] = target: Tyrosine-protein kinase Fes/Fps (Homo sapiens) (UniProt P07332); assay: Inhibition of human Fes at 10 uM
[11] = target: Fibroblast growth factor receptor 3 (Homo sapiens) (UniProt P22607); assay: Inhibition of human FGFR3 at 10 uM
[12] = target: Receptor-type tyrosine-protein kinase FLT3 (Homo sapiens) (UniProt P36888); assay: Inhibition of human Flt3 at 10 uM
Sequence of Receptor-type tyrosine-protein kinase FLT3 (Homo sapiens) (P36888 whole entry): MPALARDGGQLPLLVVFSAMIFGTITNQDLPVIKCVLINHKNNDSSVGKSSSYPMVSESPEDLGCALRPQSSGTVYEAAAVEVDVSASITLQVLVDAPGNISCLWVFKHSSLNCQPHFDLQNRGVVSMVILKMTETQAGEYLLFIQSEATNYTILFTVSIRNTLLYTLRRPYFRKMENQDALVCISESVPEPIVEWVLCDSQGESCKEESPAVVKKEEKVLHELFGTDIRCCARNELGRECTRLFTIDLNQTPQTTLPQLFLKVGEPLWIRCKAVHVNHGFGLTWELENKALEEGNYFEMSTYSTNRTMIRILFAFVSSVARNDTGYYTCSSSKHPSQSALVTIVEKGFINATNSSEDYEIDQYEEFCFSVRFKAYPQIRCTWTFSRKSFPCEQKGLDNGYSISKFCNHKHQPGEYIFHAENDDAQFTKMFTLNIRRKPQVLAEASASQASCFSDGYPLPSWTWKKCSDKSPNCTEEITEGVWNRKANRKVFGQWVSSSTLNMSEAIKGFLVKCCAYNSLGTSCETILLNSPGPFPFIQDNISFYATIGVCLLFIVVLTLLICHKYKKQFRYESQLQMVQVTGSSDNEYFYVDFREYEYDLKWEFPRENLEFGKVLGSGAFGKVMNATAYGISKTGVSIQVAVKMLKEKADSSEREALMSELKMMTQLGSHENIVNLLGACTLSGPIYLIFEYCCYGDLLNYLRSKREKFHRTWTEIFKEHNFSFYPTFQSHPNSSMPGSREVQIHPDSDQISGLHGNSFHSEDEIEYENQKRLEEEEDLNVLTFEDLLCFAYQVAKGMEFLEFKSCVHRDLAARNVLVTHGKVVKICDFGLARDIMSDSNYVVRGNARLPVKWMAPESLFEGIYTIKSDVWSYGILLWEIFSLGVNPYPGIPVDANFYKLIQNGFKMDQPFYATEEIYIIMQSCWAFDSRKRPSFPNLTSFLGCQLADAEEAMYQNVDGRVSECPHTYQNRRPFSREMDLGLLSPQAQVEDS

[13] = target: Glycogen synthase kinase-3 (Homo sapiens) (UniProt P49840+P49841); assay: Inhibition of human GSK3ss at 10 uM; type: protein assay
[14] = target: Inhibitor of nuclear factor kappa-B kinase subunit alpha (Homo sapiens) (UniProt O15111); assay: Inhibition of human IKKalpha at 10 uM
[15] = target: Insulin receptor (Homo sapiens) (UniProt P06213); assay: Inhibition of human IR at 10 uM
[16] = target: Mitogen-activated protein kinase 8 (Homo sapiens) (UniProt P45983); assay: Inhibition of human JNK1alpha1 at 10 uM
Sequence of Mitogen-activated protein kinase 8 (Homo sapiens) (P45983 whole entry): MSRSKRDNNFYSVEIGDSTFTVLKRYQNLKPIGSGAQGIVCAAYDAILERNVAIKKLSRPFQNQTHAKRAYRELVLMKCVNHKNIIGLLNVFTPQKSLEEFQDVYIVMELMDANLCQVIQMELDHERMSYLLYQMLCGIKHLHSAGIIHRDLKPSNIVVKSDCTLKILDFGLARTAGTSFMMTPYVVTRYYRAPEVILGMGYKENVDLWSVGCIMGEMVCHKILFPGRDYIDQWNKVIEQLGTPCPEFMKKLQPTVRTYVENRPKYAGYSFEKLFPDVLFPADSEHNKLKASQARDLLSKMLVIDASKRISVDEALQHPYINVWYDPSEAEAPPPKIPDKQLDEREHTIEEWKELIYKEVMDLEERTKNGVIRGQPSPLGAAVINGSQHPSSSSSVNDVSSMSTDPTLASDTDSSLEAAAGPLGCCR

[17] = target: Mitogen-activated protein kinase 9 (Homo sapiens) (UniProt P45984); assay: Inhibition of human JNK2alpha2 at 10 uM
[18] = target: Tyrosine-protein kinase Lck (Homo sapiens) (UniProt P06239); assay: Inhibition of human Lck at 10 uM
[19] = target: Mitogen-activated protein kinase 1 (Homo sapiens) (UniProt P28482); assay: Inhibition of human MAPK1 at 10 uM
[20] = target: MAP kinase-activated protein kinase 2 (Homo sapiens) (UniProt P49137); assay: Inhibition of human MAPKAP-K2 at 10 uM
[21] = target: Dual specificity mitogen-activated protein kinase kinase 1 (Homo sapiens) (UniProt Q02750); assay: Inhibition of human MEK1 at 10 uM
[22] = target: Dual specificity mitogen-activated protein kinase kinase 6 (Homo sapiens) (UniProt P52564); assay: Inhibition of human MKK6 at 10 uM
Sequence of Dual specificity mitogen-activated protein kinase kinase 6 (Homo sapiens) (P52564 whole entry): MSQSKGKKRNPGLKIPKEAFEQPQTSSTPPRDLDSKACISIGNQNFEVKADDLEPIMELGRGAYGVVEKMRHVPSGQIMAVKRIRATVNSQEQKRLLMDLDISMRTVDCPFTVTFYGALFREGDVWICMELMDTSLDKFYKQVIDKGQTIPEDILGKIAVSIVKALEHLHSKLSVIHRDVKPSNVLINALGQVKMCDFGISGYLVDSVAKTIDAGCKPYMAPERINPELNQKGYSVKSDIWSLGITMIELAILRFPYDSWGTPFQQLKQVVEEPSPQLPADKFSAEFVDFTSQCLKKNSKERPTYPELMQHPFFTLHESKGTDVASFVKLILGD

[23] = target: Ribosomal protein S6 kinase beta-1 (Homo sapiens) (UniProt P23443); assay: Inhibition of human p70S6K at 10 uM
[24] = target: Serine/threonine-protein kinase PAK 2 (Homo sapiens) (UniProt Q13177); assay: Inhibition of human PAK2 at 10 uM
[25] = target: Platelet-derived growth factor receptor alpha (Homo sapiens) (UniProt P16234); assay: Inhibition of human PDGFRalpha at 10 uM
Sequence of Platelet-derived growth factor receptor alpha (Homo sapiens) (P16234 whole entry): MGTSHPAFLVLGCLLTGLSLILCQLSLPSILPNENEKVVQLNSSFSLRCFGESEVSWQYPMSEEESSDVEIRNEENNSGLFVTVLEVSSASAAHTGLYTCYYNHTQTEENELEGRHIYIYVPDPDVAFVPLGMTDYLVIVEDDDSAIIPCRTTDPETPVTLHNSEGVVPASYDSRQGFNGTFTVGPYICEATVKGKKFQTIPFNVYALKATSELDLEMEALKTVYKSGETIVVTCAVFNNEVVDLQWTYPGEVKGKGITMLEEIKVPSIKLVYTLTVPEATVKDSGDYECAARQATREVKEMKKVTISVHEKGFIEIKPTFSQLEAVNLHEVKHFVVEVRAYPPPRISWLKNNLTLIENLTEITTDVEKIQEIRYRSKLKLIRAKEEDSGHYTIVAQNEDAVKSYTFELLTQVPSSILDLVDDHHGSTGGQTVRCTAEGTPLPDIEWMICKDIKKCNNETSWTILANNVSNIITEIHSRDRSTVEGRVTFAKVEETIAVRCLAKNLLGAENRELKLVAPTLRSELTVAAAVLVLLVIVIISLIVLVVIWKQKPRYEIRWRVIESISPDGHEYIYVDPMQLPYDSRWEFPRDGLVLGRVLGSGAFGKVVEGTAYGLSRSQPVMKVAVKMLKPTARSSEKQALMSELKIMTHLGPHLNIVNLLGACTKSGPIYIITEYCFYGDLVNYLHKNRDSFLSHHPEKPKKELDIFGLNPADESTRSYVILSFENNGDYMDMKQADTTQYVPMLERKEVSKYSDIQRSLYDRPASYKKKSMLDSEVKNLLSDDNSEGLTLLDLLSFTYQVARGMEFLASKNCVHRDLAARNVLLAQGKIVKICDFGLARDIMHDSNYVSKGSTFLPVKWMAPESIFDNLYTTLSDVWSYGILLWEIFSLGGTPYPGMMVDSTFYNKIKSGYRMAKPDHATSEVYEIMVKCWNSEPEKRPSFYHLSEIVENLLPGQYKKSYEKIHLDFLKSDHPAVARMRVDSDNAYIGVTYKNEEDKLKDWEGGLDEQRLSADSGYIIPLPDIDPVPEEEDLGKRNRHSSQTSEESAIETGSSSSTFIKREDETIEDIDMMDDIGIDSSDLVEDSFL

[26] = target: RAC-alpha serine/threonine-protein kinase (Homo sapiens) (UniProt P31749); assay: Inhibition of human PKBalpha at 10 uM
[27] = target: Protein kinase C alpha type (Homo sapiens) (UniProt P17252); assay: Inhibition of human PKCalpha at 10 uM
[28] = target: Protein kinase C theta type (Homo sapiens) (UniProt Q04759); assay: Inhibition of human PKCtheta at 10 uM
[29] = target: Serine/threonine-protein kinase D2 (Homo sapiens) (UniProt Q9BZL6); assay: Inhibition of human PKD2 at 10 uM
[30] = target: Rho-associated protein kinase 2 (Homo sapiens) (UniProt O75116); assay: Inhibition of human ROCK-2 at 10 uM
Sequence of Rho-associated protein kinase 2 (Homo sapiens) (O75116 whole entry, looked up): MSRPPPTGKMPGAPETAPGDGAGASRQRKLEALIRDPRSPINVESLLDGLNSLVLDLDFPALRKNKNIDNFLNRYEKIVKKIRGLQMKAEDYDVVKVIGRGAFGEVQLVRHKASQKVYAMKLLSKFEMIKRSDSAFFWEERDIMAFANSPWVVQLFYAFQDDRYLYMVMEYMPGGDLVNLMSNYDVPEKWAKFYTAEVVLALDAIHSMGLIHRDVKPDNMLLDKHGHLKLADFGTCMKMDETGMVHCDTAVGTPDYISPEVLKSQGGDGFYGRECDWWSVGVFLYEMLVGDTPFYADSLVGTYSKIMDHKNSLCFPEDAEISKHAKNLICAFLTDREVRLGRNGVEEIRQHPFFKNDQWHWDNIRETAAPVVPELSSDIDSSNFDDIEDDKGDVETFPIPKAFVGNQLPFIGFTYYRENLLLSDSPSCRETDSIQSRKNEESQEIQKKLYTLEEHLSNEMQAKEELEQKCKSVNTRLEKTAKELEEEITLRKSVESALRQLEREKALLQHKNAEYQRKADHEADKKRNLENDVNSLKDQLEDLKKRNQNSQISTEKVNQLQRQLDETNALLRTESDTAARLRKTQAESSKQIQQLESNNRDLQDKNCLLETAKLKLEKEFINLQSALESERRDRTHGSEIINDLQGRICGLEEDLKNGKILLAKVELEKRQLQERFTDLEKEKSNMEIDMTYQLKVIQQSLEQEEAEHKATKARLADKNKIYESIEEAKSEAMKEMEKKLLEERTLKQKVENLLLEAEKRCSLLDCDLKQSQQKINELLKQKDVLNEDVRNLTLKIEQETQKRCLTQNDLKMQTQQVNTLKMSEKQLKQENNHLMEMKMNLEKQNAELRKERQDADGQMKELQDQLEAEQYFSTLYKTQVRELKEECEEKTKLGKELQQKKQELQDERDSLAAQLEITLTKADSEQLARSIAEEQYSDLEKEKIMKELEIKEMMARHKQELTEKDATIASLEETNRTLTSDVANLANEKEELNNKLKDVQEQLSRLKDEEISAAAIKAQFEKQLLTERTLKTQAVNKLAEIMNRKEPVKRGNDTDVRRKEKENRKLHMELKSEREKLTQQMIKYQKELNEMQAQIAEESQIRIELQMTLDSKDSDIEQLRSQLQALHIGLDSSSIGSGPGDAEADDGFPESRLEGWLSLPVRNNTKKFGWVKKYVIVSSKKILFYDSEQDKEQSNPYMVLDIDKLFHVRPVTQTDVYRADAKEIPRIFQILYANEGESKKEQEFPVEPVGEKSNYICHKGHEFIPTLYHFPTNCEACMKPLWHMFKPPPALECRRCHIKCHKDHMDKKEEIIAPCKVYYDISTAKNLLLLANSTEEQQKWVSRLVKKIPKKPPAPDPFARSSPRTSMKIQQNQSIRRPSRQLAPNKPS

[31] = target: Ribosomal protein S6 kinase alpha-1 (Homo sapiens) (UniProt Q15418); assay: Inhibition of human Rsk1 at 10 uM
[32] = target: Mitogen-activated protein kinase 14 (Homo sapiens) (UniProt Q16539); assay: Inhibition of human SAPK2a at 10 uM
[33] = target: Mitogen-activated protein kinase 11 (Homo sapiens) (UniProt Q15759); assay: Inhibition of human SAPK2b at 10 uM
Sequence of Mitogen-activated protein kinase 11 (Homo sapiens) (Q15759 whole entry): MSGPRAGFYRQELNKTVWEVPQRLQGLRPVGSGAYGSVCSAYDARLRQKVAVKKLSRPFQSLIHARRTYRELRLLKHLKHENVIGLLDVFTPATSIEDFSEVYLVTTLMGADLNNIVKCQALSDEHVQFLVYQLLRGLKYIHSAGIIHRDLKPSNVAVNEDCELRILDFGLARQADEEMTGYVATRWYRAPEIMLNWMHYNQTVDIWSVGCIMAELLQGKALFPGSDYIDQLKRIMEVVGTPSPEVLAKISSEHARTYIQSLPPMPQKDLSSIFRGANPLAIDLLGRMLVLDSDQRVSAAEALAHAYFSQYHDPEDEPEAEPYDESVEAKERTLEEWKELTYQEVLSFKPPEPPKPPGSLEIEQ

[34] = target: Mitogen-activated protein kinase 12 (Homo sapiens) (UniProt P53778); assay: Inhibition of human SAPK3 at 10 uM
[35] = target: Serine/threonine-protein kinase Sgk1 (Homo sapiens) (UniProt O00141); assay: Inhibition of human SGK at 10 uM
[36] = target: Tyrosine-protein kinase SYK (Homo sapiens) (UniProt P43405); assay: Inhibition of human Syk at 10 uM
[37] = target: BDNF/NT-3 growth factors receptor (Homo sapiens) (UniProt Q16620); assay: Inhibition of human TrkB at 10 uM
[38] = target: Tyrosine-protein kinase ZAP-70 (Homo sapiens) (UniProt P43403); assay: Inhibition of human ZAP-70 at 10 uM
[39] = Tmax in BALB/c mouse at 5 mg/kg, iv; type: ADME, organism-based; design: dose 5 mg/kg, route intravenous; conditions: in vivo
Mus musculus [40] = assay: Tlast in BALB/c mouse at 5 mg/kg, iv; type: ADME, organism-based; design: dose 5 mg/kg, route intravenous; conditions: in vivo
Mus musculus [41] = assay: Tlast in BALB/c mouse at 20 mg/kg, po; type: ADME, organism-based; design: dose 20 mg/kg, route oral; conditions: in vivo
Homo sapiens = organism: Homo sapiens; conditions: 10 uM
Mus musculus [42] = organism: Mus musculus; conditions: 10 uM
Mus musculus [43] = organism: Mus musculus; conditions: in vivo, po, 20 mg/kg
COLO 205 = assay: cells; conditions: Homo sapiens
SW-620 = assay: cells; conditions: Homo sapiens
cells [44] = conditions: Homo sapiens, U-87 MG
cells [45] = conditions: Homo sapiens, HEK-293T
in vivo [46] = conditions: BALB/c, mouse, iv, 5 mg/kg
in vivo [47] = conditions: BALB/c, mouse, iv, 5 mg/kg; remark: listed apart in the source
in vivo [48] = conditions: BALB/c, mouse, iv, 5 mg/kg; remark: listed apart in the source
[49] = target: 3-phosphoinositide-dependent protein kinase 1 (Homo sapiens) (UniProt O15530); assay: Inhibition of human PDK1 at 10 uM
cells [50] = conditions: Mus musculus, BaF3
cells [51] = conditions: Mus musculus, BaF3; remark: listed apart in the source
cells [52] = conditions: Mus musculus, BaF3; remark: listed apart in the source
cells [53] = conditions: Mus musculus, BaF3; remark: listed apart in the source
cells [54] = conditions: Mus musculus, BaF3; remark: listed apart in the source
cells [55] = conditions: Mus musculus, BaF3; remark: listed apart in the source
cells [56] = conditions: Mus musculus, BaF3; remark: listed apart in the source
cells [57] = conditions: Mus musculus, BaF3; remark: listed apart in the source

Cc1ccc(Nc2ncc3c(n2)N(C)C(=O)N(c2cc(NC(=O)c4cccc(C(F)(F)F)c4)ccc2C)C3)cn1
inhibition [1]: 31%
inhibition [2]: 69%
inhibition [3]: 98%
inhibition [4]: 100%
inhibition [5]: 0%
inhibition [6]: 3%
inhibition [7]: 12%
inhibition [8]: 6%
inhibition [9]: 100%
inhibition [10]: 98%
inhibition [11]: 100%
inhibition [12]: 69%
inhibition [13]: 59%
inhibition [14]: 69%
inhibition [15]: 89%
inhibition [16]: 97%
inhibition [17]: 99%
inhibition [18]: 99%
inhibition [19]: 68%
inhibition [20]: 0%
inhibition [21]: 58%
inhibition [22]: 100%
inhibition [23]: 92%
inhibition [24]: 45%
inhibition [25]: 62%
inhibition [26]: 7%
inhibition [27]: 51%
inhibition [28]: 22%
inhibition [29]: 77%
inhibition [30]: 2%
inhibition [31]: 95%
inhibition [32]: 95%
inhibition [33]: 98%
inhibition [34]: 35%
inhibition [35]: 0%
inhibition [36]: 98%
inhibition [37]: 100%
inhibition [38]: 6%
Tmax [39]: 1.8 min
Tlast (Mus musculus [40]): 24 h
Tlast (Mus musculus [41]): 24 h
inhibition (Homo sapiens): 49%
inhibition (Mus musculus [42]): 98%
Cmax (Mus musculus [43]): 3.62 µM
IC50 (COLO 205): 5 nM
IC50 (SW-620): 1 nM
IC50 (cells [44]): 5960 nM
IC50 (cells [45]): > 10000 nM
Vd (in vivo [46]): 1.12 L/kg
Cmax (in vivo [47]): 11.7 µM
half-life (in vivo [48]): 3.8 h
inhibition [49]: 0%

Cc1ccc(NC(=O)c2cccc(C(F)(F)F)c2)cc1N1Cc2cnc(N)nc2N(C)C1=O
IC50 (cells [50]): < 5 nM
IC50 (cells [51]): < 5 nM
IC50 (cells [52]): < 5 nM
IC50 (cells [53]): < 5 nM
IC50 (cells [54]): < 5 nM
IC50 (cells [55]): < 5 nM
IC50 (cells [56]): < 5 nM

CNc1ncc2c(n1)N(C)C(=O)N(c1cc(NC(=O)c3cc(-n4cnc(C)c4)cc(C(F)(F)F)c3)ccc1C)C2
IC50 (cells [50]): < 5 nM
IC50 (cells [57]): < 5 nM
IC50 (cells [51]): 16 nM
IC50 (cells [52]): 15 nM
IC50 (cells [53]): 13 nM
IC50 (cells [55]): < 5 nM
IC50 (cells [56]): < 5 nM

Cc1ccc(NC(=O)c2cccc(C(F)(F)F)c2)cc1N1Cc2cnc(Nc3ccccc3)nc2N(C)C1=O
IC50 (cells [50]): < 5 nM
IC50 (cells [51]): 19 nM
IC50 (cells [52]): < 5 nM
IC50 (cells [56]): < 5 nM
